Results as given in ChEMBL document CHEMBL1201861, “Genomics of Drug Sensitity in Cancer screening data, Wellcome Trust Sanger Institute”.

How the values were obtained:
HuCCT-1 = test: cells; format: functional, cell-based, HuCCT1; settings: Homo sapiens
Description: SANGER: Inhibition of human HuCCT1 cell growth in a cell viability assay.

CHP-212 = test: cells; format: functional, cell-based; settings: Homo sapiens
Description: SANGER: Inhibition of human CHP-212 cell growth in a cell viability assay.

NCI-H2087 = test: cells; format: functional, cell-based; settings: Homo sapiens
Description: SANGER: Inhibition of human NCI-H2087 cell growth in a cell viability assay.

HT-29 = test: cells; format: functional, cell-based; settings: Homo sapiens
Description: SANGER: Inhibition of human HT-29 cell growth in a cell viability assay.

23132-87 = test: cells; format: functional, cell-based; settings: Homo sapiens
Description: SANGER: Inhibition of human 23132-87 cell growth in a cell viability assay.

BHT-101 = test: cells; format: functional, cell-based; settings: Homo sapiens
Description: SANGER: Inhibition of human BHT-101 cell growth in a cell viability assay.

NCI-H1573 = test: cells; format: functional, cell-based; settings: Homo sapiens
Description: SANGER: Inhibition of human NCI-H1573 cell growth in a cell viability assay.

639-V = test: cells; format: functional, cell-based; settings: Homo sapiens
Description: SANGER: Inhibition of human 639-V cell growth in a cell viability assay.

MHH-ES-1 = test: cells; format: functional, cell-based; settings: Homo sapiens
Description: SANGER: Inhibition of human MHH-ES-1 cell growth in a cell viability assay.

Daoy = test: cells; format: functional, cell-based; settings: Homo sapiens
Description: SANGER: Inhibition of human Daoy cell growth in a cell viability assay.

HuP-T3 = test: cells; format: functional, cell-based; settings: Homo sapiens
Description: SANGER: Inhibition of human HuP-T3 cell growth in a cell viability assay.

SW780 = test: cells; format: functional, cell-based; settings: Homo sapiens
Description: SANGER: Inhibition of human SW780 cell growth in a cell viability assay.

HCT-116 = test: cells; format: functional, cell-based; settings: Homo sapiens
Description: SANGER: Inhibition of human HCT-116 cell growth in a cell viability assay.

FTC-133 = test: cells; format: functional, cell-based; settings: Homo sapiens
A 172 = test: cells; format: functional, cell-based; settings: Homo sapiens
Description: SANGER: Inhibition of human A172 cell growth in a cell viability assay.

G-402 = test: cells; format: functional, cell-based; settings: Homo sapiens
Description: SANGER: Inhibition of human G-402 cell growth in a cell viability assay.

NCI-H460 = test: cells; format: functional, cell-based; settings: Homo sapiens
Description: SANGER: Inhibition of human NCI-H460 cell growth in a cell viability assay.

CAL-33 = test: cells; format: functional, cell-based; settings: Homo sapiens
Description: SANGER: Inhibition of human CAL-33 cell growth in a cell viability assay.

TYK-nu = test: cells; format: functional, cell-based; settings: Homo sapiens
Description: SANGER: Inhibition of human TYK-nu cell growth in a cell viability assay.

HEC-1 = test: cells; format: functional, cell-based; settings: Homo sapiens
Description: SANGER: Inhibition of human HEC-1 cell growth in a cell viability assay.

HTC-C3 = test: cells; format: functional, cell-based; settings: Homo sapiens
Description: SANGER: Inhibition of human HTC-C3 cell growth in a cell viability assay.

U2OS = test: cells; format: functional, cell-based, U-2-OS; settings: Homo sapiens
Description: SANGER: Inhibition of human U-2-OS cell growth in a cell viability assay.

CAMA-1 = test: cells; format: functional, cell-based; settings: Homo sapiens
Description: SANGER: Inhibition of human CAMA-1 cell growth in a cell viability assay.

VMRC-RCZ = test: cells; format: functional, cell-based; settings: Homo sapiens
Description: SANGER: Inhibition of human VMRC-RCZ cell growth in a cell viability assay.

GP5d = test: cells; format: functional, cell-based; settings: Homo sapiens
Description: SANGER: Inhibition of human GP5d cell growth in a cell viability assay.

GMS-10 = test: cells; format: functional, cell-based; settings: Homo sapiens
Description: SANGER: Inhibition of human GMS-10 cell growth in a cell viability assay.

BFTC-905 = test: cells; format: functional, cell-based; settings: Homo sapiens
Description: SANGER: Inhibition of human BFTC-905 cell growth in a cell viability assay.

DU-145 = test: cells; format: functional, cell-based; settings: Homo sapiens
Description: SANGER: Inhibition of human DU-145 cell growth in a cell viability assay.

KP-N-YN = test: cells; format: functional, cell-based; settings: Homo sapiens
Description: SANGER: Inhibition of human KP-N-YN cell growth in a cell viability assay.

NCI-H441 = test: cells; format: functional, cell-based; settings: Homo sapiens
Description: SANGER: Inhibition of human NCI-H441 cell growth in a cell viability assay.

CAL-85-1 = test: cells; format: functional, cell-based; settings: Homo sapiens
Description: SANGER: Inhibition of human CAL-85-1 cell growth in a cell viability assay.

Panc1005 = test: cells; format: functional, cell-based; settings: Homo sapiens
Description: SANGER: Inhibition of human PANC-10-05 cell growth in a cell viability assay.

MDA-MB-415 = test: cells; format: functional, cell-based; settings: Homo sapiens
D-336MG = test: cells; format: functional, cell-based; settings: Homo sapiens
Description: SANGER: Inhibition of human D-336MG cell growth in a cell viability assay.

MEL-HO = test: cells; format: functional, cell-based; settings: Homo sapiens
Description: SANGER: Inhibition of human MEL-HO cell growth in a cell viability assay.

MOLT-13 = test: cells; format: functional, cell-based; settings: Homo sapiens
Description: SANGER: Inhibition of human MOLT-13 cell growth in a cell viability assay.

CAPAN-1 = test: cells; format: functional, cell-based; settings: Homo sapiens
Description: SANGER: Inhibition of human CAPAN-1 cell growth in a cell viability assay.

DK-MG = test: cells; format: functional, cell-based; settings: Homo sapiens
Description: SANGER: Inhibition of human DK-MG cell growth in a cell viability assay.

Detroit 562 = test: cells; format: functional, cell-based; settings: Homo sapiens
Description: SANGER: Inhibition of human Detroit562 cell growth in a cell viability assay.

C3A = test: cells; format: functional, cell-based; settings: Homo sapiens
Description: SANGER: Inhibition of human C3A cell growth in a cell viability assay.

UO-31 = test: cells; format: functional, cell-based; settings: Homo sapiens
Description: SANGER: Inhibition of human U031 cell growth in a cell viability assay.

SK-MEL3 = test: cells; format: functional, cell-based, SK-MEL-3; settings: Homo sapiens
Description: SANGER: Inhibition of human SK-MEL-3 cell growth in a cell viability assay.

IGROV-1 = test: cells; format: functional, cell-based; settings: Homo sapiens
Description: SANGER: Inhibition of human IGROV-1 cell growth in a cell viability assay.

HCC70 = test: cells; format: functional, cell-based; settings: Homo sapiens
Description: SANGER: Inhibition of human HCC70 cell growth in a cell viability assay.

T-24 = test: cells; format: functional, cell-based; settings: Homo sapiens
Description: SANGER: Inhibition of human T-24 cell growth in a cell viability assay.

MeWo = test: cells; format: functional, cell-based; settings: Homo sapiens
Description: SANGER: Inhibition of human Mewo cell growth in a cell viability assay.

CAL-54 = test: cells; format: functional, cell-based; settings: Homo sapiens
Description: SANGER: Inhibition of human CAL-54 cell growth in a cell viability assay.

SAS = test: cells; format: functional, cell-based; settings: Homo sapiens
Description: SANGER: Inhibition of human SAS cell growth in a cell viability assay.

COLO-678 = test: cells; format: functional, cell-based; settings: Homo sapiens
Description: SANGER: Inhibition of human COLO-678 cell growth in a cell viability assay.

SCC-9 = test: cells; format: functional, cell-based; settings: Homo sapiens
Description: SANGER: Inhibition of human SCC-9 cell growth in a cell viability assay.

RPMI-7951 = test: cells; format: functional, cell-based; settings: Homo sapiens
Description: SANGER: Inhibition of human RPMI-7951 cell growth in a cell viability assay.

HT-1376 = test: cells; format: functional, cell-based; settings: Homo sapiens
Description: SANGER: Inhibition of human HT-1376 cell growth in a cell viability assay.

HSC-3 = test: cells; format: functional, cell-based; settings: Homo sapiens
Description: SANGER: Inhibition of human HSC-3 cell growth in a cell viability assay.

HN = test: cells; format: functional, cell-based; settings: Homo sapiens
Description: SANGER: Inhibition of human HN cell growth in a cell viability assay.

SNU-449 = test: cells; format: functional, cell-based; settings: Homo sapiens
Description: SANGER: Inhibition of human SNU-449 cell growth in a cell viability assay.

SR = test: cells; format: functional, cell-based; settings: Homo sapiens
Description: SANGER: Inhibition of human SR cell growth in a cell viability assay.

ARH-77 = test: cells; format: functional, cell-based; settings: Homo sapiens
Description: SANGER: Inhibition of human ARH-77 cell growth in a cell viability assay.

WSU-NHL = test: cells; format: functional, cell-based; settings: Homo sapiens
Description: SANGER: Inhibition of human WSU-NHL cell growth in a cell viability assay.

OPM-2 = test: cells; format: functional, cell-based; settings: Homo sapiens
Description: SANGER: Inhibition of human OPM-2 cell growth in a cell viability assay.

SUP-T1 = test: cells; format: functional, cell-based; settings: Homo sapiens
Description: SANGER: Inhibition of human SUP-T1 cell growth in a cell viability assay.

KARPAS-422 = test: cells; format: functional, cell-based; settings: Homo sapiens
Description: SANGER: Inhibition of human KARPAS-422 cell growth in a cell viability assay.

GDM-1 = test: cells; format: functional, cell-based; settings: Homo sapiens
Description: SANGER: Inhibition of human GDM-1 cell growth in a cell viability assay.

BL-70 = test: SANGER: Inhibition of human BL-70 cell growth in a cell viability assay.; format: functional, cell-based
NCCIT = test: SANGER: Inhibition of human NCCIT cell growth in a cell viability assay.; format: functional, cell-based
NALM-6 = test: cells; format: functional, cell-based; settings: Homo sapiens
Description: SANGER: Inhibition of human NALM-6 cell growth in a cell viability assay.

## Cn1cc(/C=C2\C(=O)Nc3cccnc32)c2ccccc21
HuCCT-1
  IC50: > 2000 nM
CHP-212
  IC50: > 2000 nM
NCI-H2087
  IC50: > 2000 nM
HT-29
  IC50: > 2000 nM
23132-87
  IC50: > 2000 nM
BHT-101
  IC50: > 2000 nM
NCI-H1573
  IC50: > 2000 nM
639-V
  IC50: > 2000 nM
MHH-ES-1
  IC50: > 2000 nM
Daoy
  IC50: > 2000 nM
HuP-T3
  IC50: > 2000 nM
SW780
  IC50: > 2000 nM
HCT-116
  IC50: > 2000 nM
FTC-133
  IC50: > 2000 nM
A 172
  IC50: > 2000 nM
G-402
  IC50: > 2000 nM
NCI-H460
  IC50: > 2000 nM
CAL-33
  IC50: > 2000 nM
TYK-nu
  IC50: > 2000 nM
HEC-1
  IC50: > 2000 nM
HTC-C3
  IC50: > 2000 nM
U2OS
  IC50: > 2000 nM
CAMA-1
  IC50: > 2000 nM
VMRC-RCZ
  IC50: > 2000 nM
GP5d
  IC50: > 2000 nM
GMS-10
  IC50: > 2000 nM
BFTC-905
  IC50: > 2000 nM
DU-145
  IC50: > 2000 nM
KP-N-YN
  IC50: > 2000 nM
NCI-H441
  IC50: > 2000 nM
CAL-85-1
  IC50: > 2000 nM
Panc1005
  IC50: > 2000 nM
MDA-MB-415
  IC50: > 2000 nM
D-336MG
  IC50: > 2000 nM
MEL-HO
  IC50: > 2000 nM
MOLT-13
  IC50: > 2000 nM
CAPAN-1
  IC50: > 2000 nM
DK-MG
  IC50: > 2000 nM
Detroit 562
  IC50: > 2000 nM
C3A
  IC50: > 2000 nM
UO-31
  IC50: > 2000 nM
SK-MEL3
  IC50: > 2000 nM
IGROV-1
  IC50: > 2000 nM
HCC70
  IC50: > 2000 nM
T-24
  IC50: 638 nM
MeWo
  IC50: > 2000 nM
CAL-54
  IC50: > 2000 nM
SAS
  IC50: > 2000 nM
COLO-678
  IC50: > 2000 nM
SCC-9
  IC50: > 2000 nM
RPMI-7951
  IC50: > 2000 nM
HT-1376
  IC50: > 2000 nM
HSC-3
  IC50: > 2000 nM
HN
  IC50: > 2000 nM
SNU-449
  IC50: > 2000 nM

## Cc1[nH]c(/C=C2\C(=O)Nc3ccc(S(=O)(=O)Cc4c(Cl)cccc4Cl)cc32)c(C)c1C(=O)N1CCC[C@@H]1CN1CCCC1 [PHA-665752]
SR
  IC50: > 2000 nM
ARH-77
  IC50: > 2000 nM
WSU-NHL
  IC50: > 2000 nM
OPM-2
  IC50: > 2000 nM
SUP-T1
  IC50: > 2000 nM
KARPAS-422
  IC50: > 2000 nM
GDM-1
  IC50: > 2000 nM
D-336MG
  IC50: > 2000 nM
MOLT-13
  IC50: > 2000 nM
BL-70
  IC50: > 2000 nM
NCCIT
  IC50: > 2000 nM
NALM-6
  IC50: > 2000 nM

## COc1cc(C)c(Sc2cnc(NC(=O)c3ccc(CNC(C)C(C)(C)C)cc3)s2)cc1C(=O)N1CCN(C(C)=O)CC1 (centres undefined)
SR
  IC50: > 10200 nM
ARH-77
  IC50: > 10200 nM
WSU-NHL
  IC50: > 10200 nM
OPM-2
  IC50: 8910 nM
SUP-T1
  IC50: 7480 nM
KARPAS-422
  IC50: > 10200 nM
GDM-1
  IC50: > 10200 nM
D-336MG
  IC50: 6780 nM
MOLT-13
  IC50: > 10200 nM
BL-70
  IC50: > 10200 nM
NCCIT
  IC50: > 10200 nM
NALM-6
  IC50: 10000 nM
